Legend:
[1] = molecular target: Iron-sulfur clusters transporter ABCB7, mitochondrial (Homo sapiens) (UniProt O75027)
[2] = molecular target: Tyrosine-protein kinase ABL1 (Homo sapiens, UniProt P00519)
[3] = molecular target: Fatty acid CoA ligase Acsl3 (Homo sapiens) (UniProt O95573)
[4] = molecular target: Neuroblast differentiation-associated protein AHNAK (Homo sapiens) (UniProt Q09666)
[5] = molecular target: Argininosuccinate synthase (Homo sapiens) (UniProt P00966)
[6] = molecular target: V-type proton ATPase subunit G 1 (Homo sapiens) (UniProt O75348)
[7] = molecular target: Mitotic checkpoint protein BUB3 (Homo sapiens) (UniProt O43684)
Calumenin (Homo sapiens) = Calumenin (Homo sapiens) (UniProt O43852)
[8] = molecular target: Clathrin heavy chain 1 (Homo sapiens) (UniProt Q00610)
[9] = molecular target: Cathepsin B (Homo sapiens) (UniProt P07858)
[10] = molecular target: Cytochrome c1, heme protein, mitochondrial (Homo sapiens) (UniProt P08574)
Cytochrome c1, heme protein, mitochondrial (Homo sapiens), sequence (P08574 whole entry, the tested form may be a part): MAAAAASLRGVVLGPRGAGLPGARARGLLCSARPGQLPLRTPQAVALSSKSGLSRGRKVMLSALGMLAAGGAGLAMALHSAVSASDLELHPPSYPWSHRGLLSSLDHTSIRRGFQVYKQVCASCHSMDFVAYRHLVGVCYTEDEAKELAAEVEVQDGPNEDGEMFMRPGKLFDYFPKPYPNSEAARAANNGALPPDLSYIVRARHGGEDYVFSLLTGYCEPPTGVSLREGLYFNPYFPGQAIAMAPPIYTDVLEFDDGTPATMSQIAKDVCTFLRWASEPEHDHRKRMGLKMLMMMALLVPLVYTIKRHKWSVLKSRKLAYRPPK

[11] = molecular target: Epithelial discoidin domain-containing receptor 1 (Homo sapiens) (UniProt Q08345)
[12] = molecular target: Discoidin domain-containing receptor 2 (Homo sapiens) (UniProt Q16832)
[13] = molecular target: Probable ATP-dependent RNA helicase DDX5 (Homo sapiens) (UniProt P17844)
[14] = molecular target: Dipeptidyl peptidase 2 (Homo sapiens) (UniProt Q9UHL4)
[15] = molecular target: Enhancer of rudimentary homolog (Homo sapiens) (UniProt P84090)
[16] = molecular target: Serine/threonine-protein kinase/endoribonuclease IRE2 (Homo sapiens) (UniProt Q76MJ5)
[17] = molecular target: Protein FAM136A (Homo sapiens) (UniProt Q96C01)
Protein FAM136A (Homo sapiens), sequence (Q96C01 whole entry): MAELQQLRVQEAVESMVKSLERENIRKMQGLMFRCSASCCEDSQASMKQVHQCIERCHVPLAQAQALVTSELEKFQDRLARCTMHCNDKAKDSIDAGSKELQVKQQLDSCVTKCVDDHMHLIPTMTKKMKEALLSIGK

[18] = molecular target: Glutathione S-transferase P (Homo sapiens) (UniProt P09211)
Glutathione S-transferase P (Homo sapiens), sequence (P09211 2-210 limits assumed): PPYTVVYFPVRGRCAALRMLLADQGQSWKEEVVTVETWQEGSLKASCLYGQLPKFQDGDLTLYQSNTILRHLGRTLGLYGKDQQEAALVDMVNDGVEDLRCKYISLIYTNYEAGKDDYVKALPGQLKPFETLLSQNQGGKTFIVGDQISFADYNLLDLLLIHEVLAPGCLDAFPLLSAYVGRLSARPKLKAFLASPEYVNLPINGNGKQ

[19] = molecular target: General transcription factor II-I (Homo sapiens) (UniProt P78347)
[20] = molecular target: Heterogeneous nuclear ribonucleoprotein K (Homo sapiens) (UniProt P61978)
[21] = molecular target: Heterogeneous nuclear ribonucleoprotein U-like protein 1 (Homo sapiens) (UniProt Q9BUJ2)
[22] = molecular target: Heat shock protein HSP 90-alpha (Homo sapiens) (UniProt P07900)
[23] = molecular target: 60 kDa heat shock protein, mitochondrial (Homo sapiens) (UniProt P10809)
[24] = molecular target: Mitogen-activated protein kinase kinase kinase 6 (Homo sapiens) (UniProt O95382)
[25] = molecular target: MAP kinase-activated protein kinase 2 (Homo sapiens) (UniProt P49137)
[26] = molecular target: Mitochondrial carrier homolog 2 (Homo sapiens) (UniProt Q9Y6C9)
[27] = molecular target: Serine/threonine-protein kinase mTOR (Homo sapiens) (UniProt P42345)
Nucleolin (Homo sapiens) = Nucleolin (Homo sapiens) (UniProt P19338)
Nucleolin (Homo sapiens), sequence (P19338 whole entry): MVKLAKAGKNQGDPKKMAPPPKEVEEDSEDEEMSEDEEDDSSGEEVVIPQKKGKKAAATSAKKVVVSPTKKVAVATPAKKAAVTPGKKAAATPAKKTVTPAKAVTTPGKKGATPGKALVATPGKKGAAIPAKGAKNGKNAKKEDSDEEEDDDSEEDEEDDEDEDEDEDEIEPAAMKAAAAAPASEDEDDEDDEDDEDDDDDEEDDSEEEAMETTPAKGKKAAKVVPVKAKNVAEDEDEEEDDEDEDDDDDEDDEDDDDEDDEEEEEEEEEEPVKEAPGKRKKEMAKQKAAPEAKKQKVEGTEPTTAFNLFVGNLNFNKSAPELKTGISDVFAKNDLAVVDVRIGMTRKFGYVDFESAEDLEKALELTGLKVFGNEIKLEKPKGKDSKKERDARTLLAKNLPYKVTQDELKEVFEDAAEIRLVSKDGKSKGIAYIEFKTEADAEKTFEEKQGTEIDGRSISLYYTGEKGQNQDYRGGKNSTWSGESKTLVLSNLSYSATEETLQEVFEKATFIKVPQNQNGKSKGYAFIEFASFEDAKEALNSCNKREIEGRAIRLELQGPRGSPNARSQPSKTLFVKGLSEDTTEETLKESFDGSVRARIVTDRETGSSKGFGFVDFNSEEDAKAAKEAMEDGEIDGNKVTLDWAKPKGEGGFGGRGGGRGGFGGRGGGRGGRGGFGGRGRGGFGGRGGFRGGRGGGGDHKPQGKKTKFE

[28] = molecular target: NADH dehydrogenase [ubiquinone] iron-sulfur protein 3, mitochondrial (Homo sapiens) (UniProt O75489)
[29] = molecular target: Serine/threonine-protein kinase Nek3 (Homo sapiens) (UniProt P51956)
[30] = molecular target: Membrane-associated progesterone receptor component 1 (Homo sapiens) (UniProt O00264)
[31] = molecular target: 26S proteasome non-ATPase regulatory subunit 1 (Homo sapiens) (UniProt Q99460)
[32] = molecular target: Large ribosomal subunit protein eL31 (Homo sapiens) (UniProt P62899)
[33] = molecular target: Ribosomal protein S6 kinase alpha-1 (Homo sapiens) (UniProt Q15418)
[34] = molecular target: Serine hydroxymethyltransferase, mitochondrial (Homo sapiens) (UniProt P34897)
[35] = molecular target: Stress-induced-phosphoprotein 1 (Homo sapiens) (UniProt P31948)
[36] = molecular target: Tyrosine-protein kinase Tec (Homo sapiens) (UniProt P42680)
[37] = molecular target: Transferrin receptor protein 1 (Homo sapiens) (UniProt P02786)
[38] = molecular target: Transmembrane 9 superfamily member 4 (Homo sapiens) (UniProt Q92544)
Transmembrane 9 superfamily member 4 (Homo sapiens), sequence (Q92544 whole entry): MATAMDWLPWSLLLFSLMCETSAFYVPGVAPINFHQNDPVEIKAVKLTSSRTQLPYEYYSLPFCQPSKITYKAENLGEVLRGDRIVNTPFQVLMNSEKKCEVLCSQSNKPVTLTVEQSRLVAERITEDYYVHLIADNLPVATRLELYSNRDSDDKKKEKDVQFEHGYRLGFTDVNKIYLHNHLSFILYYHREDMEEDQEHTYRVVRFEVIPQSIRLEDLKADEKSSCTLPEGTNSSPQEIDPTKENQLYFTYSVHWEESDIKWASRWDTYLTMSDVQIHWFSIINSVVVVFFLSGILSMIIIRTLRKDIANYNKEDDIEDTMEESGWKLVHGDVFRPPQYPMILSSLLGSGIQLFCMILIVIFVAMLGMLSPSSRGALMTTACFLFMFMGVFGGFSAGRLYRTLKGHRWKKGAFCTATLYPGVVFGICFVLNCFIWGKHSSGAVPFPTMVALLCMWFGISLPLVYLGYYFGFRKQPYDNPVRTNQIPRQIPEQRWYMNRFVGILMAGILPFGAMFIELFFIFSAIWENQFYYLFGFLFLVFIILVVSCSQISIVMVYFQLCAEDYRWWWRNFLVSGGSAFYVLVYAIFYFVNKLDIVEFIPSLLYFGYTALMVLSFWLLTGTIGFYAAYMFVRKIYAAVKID

[39] = molecular target: Transmembrane protein 161A (Homo sapiens) (UniProt Q9NX61)
Transmembrane protein 161A (Homo sapiens), sequence (Q9NX61 whole entry): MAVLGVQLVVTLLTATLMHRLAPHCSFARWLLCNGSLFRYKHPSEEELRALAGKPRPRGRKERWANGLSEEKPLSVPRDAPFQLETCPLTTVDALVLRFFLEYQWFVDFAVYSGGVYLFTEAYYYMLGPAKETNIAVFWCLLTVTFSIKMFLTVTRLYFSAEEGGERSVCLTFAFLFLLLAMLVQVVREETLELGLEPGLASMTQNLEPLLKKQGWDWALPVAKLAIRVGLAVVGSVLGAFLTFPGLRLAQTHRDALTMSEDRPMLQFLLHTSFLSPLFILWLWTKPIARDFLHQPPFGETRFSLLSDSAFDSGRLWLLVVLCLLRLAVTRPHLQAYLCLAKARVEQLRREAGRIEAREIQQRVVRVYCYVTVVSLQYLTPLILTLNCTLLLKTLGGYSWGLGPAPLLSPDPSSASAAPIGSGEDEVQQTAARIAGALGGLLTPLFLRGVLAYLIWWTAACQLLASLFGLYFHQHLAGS

[40] = molecular target: Gamma-tubulin complex component 2 (Homo sapiens) (UniProt Q9BSJ2)
Gamma-tubulin complex component 2 (Homo sapiens), sequence (Q9BSJ2 whole entry, one chain of several): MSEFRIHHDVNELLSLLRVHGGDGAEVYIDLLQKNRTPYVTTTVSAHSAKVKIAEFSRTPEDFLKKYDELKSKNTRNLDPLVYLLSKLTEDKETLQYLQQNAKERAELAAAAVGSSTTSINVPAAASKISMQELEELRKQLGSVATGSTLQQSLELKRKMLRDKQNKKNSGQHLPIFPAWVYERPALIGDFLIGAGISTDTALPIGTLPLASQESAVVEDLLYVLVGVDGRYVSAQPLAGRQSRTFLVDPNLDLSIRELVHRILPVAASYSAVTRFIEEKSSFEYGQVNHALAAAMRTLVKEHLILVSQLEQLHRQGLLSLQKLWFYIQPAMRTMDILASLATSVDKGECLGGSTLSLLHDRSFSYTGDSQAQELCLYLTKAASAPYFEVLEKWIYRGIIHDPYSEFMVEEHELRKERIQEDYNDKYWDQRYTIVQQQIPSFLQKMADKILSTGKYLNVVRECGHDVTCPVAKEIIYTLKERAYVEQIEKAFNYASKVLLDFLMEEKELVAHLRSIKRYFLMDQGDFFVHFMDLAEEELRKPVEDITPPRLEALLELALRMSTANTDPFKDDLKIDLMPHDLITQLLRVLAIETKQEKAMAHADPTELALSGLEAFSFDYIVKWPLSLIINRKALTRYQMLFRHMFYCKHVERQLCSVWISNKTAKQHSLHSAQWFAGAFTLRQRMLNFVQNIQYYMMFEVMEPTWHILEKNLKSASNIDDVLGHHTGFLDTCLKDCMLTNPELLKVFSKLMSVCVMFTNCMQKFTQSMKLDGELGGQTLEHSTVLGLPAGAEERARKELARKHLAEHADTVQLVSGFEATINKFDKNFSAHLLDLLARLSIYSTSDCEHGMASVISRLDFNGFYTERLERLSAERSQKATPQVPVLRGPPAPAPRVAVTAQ

[41] = molecular target: UDP-glucose:glycoprotein glucosyltransferase 1 (Homo sapiens) (UniProt Q9NYU2)
UDP-glucose:glycoprotein glucosyltransferase 1 (Homo sapiens), sequence (Q9NYU2 whole entry): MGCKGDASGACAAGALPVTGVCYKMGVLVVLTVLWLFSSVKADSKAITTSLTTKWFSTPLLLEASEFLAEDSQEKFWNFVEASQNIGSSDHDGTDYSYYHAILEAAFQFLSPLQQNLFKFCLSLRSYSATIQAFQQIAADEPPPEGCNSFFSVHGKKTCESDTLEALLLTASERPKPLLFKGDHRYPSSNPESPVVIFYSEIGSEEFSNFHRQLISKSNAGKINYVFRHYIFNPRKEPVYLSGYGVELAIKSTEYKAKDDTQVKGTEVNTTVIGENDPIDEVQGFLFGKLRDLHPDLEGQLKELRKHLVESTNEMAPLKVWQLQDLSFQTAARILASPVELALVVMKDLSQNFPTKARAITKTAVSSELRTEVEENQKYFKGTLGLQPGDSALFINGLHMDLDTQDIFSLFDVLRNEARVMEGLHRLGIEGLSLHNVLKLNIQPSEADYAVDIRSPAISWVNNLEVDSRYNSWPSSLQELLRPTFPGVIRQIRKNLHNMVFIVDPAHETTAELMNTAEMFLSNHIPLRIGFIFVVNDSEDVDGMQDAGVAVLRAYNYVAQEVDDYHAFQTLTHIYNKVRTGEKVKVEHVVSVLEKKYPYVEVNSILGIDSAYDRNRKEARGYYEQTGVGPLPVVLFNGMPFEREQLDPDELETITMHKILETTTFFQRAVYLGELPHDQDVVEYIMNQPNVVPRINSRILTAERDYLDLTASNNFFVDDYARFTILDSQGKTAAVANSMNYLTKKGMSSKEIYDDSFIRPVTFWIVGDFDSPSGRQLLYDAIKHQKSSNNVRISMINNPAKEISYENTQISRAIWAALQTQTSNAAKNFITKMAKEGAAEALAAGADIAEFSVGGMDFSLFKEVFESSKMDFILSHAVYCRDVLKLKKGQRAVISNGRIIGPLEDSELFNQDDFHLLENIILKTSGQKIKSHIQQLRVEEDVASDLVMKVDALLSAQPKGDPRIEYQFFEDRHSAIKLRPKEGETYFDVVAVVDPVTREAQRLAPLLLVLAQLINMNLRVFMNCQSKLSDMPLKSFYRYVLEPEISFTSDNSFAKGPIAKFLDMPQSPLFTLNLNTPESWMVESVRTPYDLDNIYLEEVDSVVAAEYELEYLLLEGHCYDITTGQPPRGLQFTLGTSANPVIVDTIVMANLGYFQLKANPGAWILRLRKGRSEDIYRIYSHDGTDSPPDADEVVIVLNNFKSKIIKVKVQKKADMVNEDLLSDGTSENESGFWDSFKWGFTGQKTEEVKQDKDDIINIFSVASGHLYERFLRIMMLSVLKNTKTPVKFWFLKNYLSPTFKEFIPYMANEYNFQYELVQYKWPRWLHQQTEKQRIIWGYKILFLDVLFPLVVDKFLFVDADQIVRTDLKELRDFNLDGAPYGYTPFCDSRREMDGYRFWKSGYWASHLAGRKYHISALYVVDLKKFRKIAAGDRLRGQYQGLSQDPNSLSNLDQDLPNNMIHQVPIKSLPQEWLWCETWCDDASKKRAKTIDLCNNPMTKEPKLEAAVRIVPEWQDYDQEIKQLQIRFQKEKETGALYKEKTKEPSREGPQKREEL

[42] = molecular target: Exportin-5 (Homo sapiens) (UniProt Q9HAV4)
[43] = molecular target: 14-3-3 protein theta (Homo sapiens) (UniProt P27348)
[44] = molecular target: Zinc finger CCCH-type antiviral protein 1 (Homo sapiens) (UniProt Q7Z2W4)
Note: assay method not described here.

Cc1ccc(C(=O)Nc2cccc(C(F)(F)F)c2)cc1Nc1nc(-c2cccnc2)nc2c1cnn2C
ED50 [1]: 0.0622 µM
ED50 [2]: 1.66 µM
ED50 [3]: 5.73 µM
ED50 [4]: 4.79 µM
ED50 [5]: 5.02 µM
ED50 [6]: 501 µM
ED50 [7]: 0.00528 µM
ED50 (Calumenin (Homo sapiens)): 1.72 µM
ED50 [8]: 0.0189 µM
ED50 [9]: 60.4 µM
ED50 [10]: 0.00055 µM
ED50 [11]: 0.484 µM
ED50 [12]: 0.542 µM
ED50 [13]: 1.16 µM
ED50 [14]: 0.00529 µM
ED50 [15]: 0.00895 µM
ED50 [16]: 2.7 µM
ED50 [17]: 0.043 µM
ED50 [18]: 1700 µM
ED50 [19]: 2.77 µM
ED50 [20]: 0.0564 µM
ED50 [21]: 0.922 µM
ED50 [22]: 0.173 µM
ED50 (Homo sapiens): 16.8 µM
ED50 [23]: 0.0041 µM
ED50 [24]: 1.26 µM
ED50 [25]: 0.549 µM
ED50 [26]: 0.0279 µM
ED50 [27]: 11.6 µM
ED50 (Nucleolin (Homo sapiens)): 2.79 µM
ED50 [28]: 4.77 µM
ED50 [29]: 4.18 µM
ED50 [30]: 0.651 µM
ED50 [31]: 0.0138 µM
ED50 [32]: 14.9 µM
ED50 [33]: 7.62 µM
ED50 [34]: 58.3 µM
ED50 [35]: 3.83 µM
ED50 [36]: 0.0311 µM
ED50 [37]: 0.1 µM
ED50 [38]: 9.65 µM
ED50 [39]: 0.044 µM
ED50 [40]: 0.16 µM
ED50 [41]: 54.5 µM
ED50 [42]: 0.0475 µM
ED50 [43]: 0.0211 µM
ED50 [44]: 13.3 µM

Cc1ccc(C(=O)Nc2cccc(C(F)(F)F)c2)cc1Nc1nc(-c2cccnc2)nc2nn(C)cc12
ED50 [1]: 0.0289 µM
ED50 [2]: 1.34 µM
ED50 [3]: 37.2 µM
ED50 [4]: 0.11 µM
ED50 [5]: 0.0579 µM
ED50 [6]: 9.38 µM
ED50 [7]: 0.0679 µM
ED50 (Calumenin (Homo sapiens)): 3.41 µM
ED50 [8]: 0.0214 µM
ED50 [9]: 18.1 µM
ED50 [10]: 0.0293 µM
ED50 [11]: 0.136 µM
ED50 [12]: 0.387 µM
ED50 [13]: 0.0157 µM
ED50 [14]: 0.504 µM
ED50 [15]: 0.806 µM
ED50 [16]: 1.71 µM
ED50 [17]: 4.63 µM
ED50 [18]: 58.7 µM
ED50 [19]: 0.0945 µM
ED50 [20]: 0.184 µM
ED50 [21]: 2.56 µM
ED50 [22]: 33.1 µM
ED50 (Homo sapiens): 0.00606 µM
ED50 [23]: 0.148 µM
ED50 [24]: 8.27 µM
ED50 [25]: 0.0517 µM
ED50 [26]: 0.13 µM
ED50 [27]: 0.443 µM
ED50 (Nucleolin (Homo sapiens)): 30.3 µM
ED50 [28]: 0.002 µM
ED50 [29]: 10.7 µM
ED50 [30]: 23.2 µM
ED50 [31]: 4.32 µM
ED50 [32]: 0.00449 µM
ED50 [33]: 1.79 µM
ED50 [34]: 0.345 µM
ED50 [35]: 0.0577 µM
ED50 [36]: 0.0289 µM
ED50 [37]: 7.34 µM
ED50 [38]: 95.3 µM
ED50 [39]: 0.434 µM
ED50 [40]: 0.0401 µM
ED50 [41]: 0.0435 µM
ED50 [42]: 3.69 µM
ED50 [43]: 1.35 µM
ED50 [44]: 0.0483 µM

From ChEMBL document CHEMBL5649169 (ChemMedChem, 2018)
